Reference: PubChem BioAssay (NCI)
Values joined by “and” are separate entries in the source; they are usually repeats but may differ in a detail not shown here. Equal entries are not always repeated.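 All cell lines were grown in 96-well plates and treated with compound for 48 hours. GI50: concentration for 50% inhibition of growth. TGI is the concentration that stops growth completely.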

What was measured:
Assay in all cases: NCI tumour cell line growth inhibition, 48 h
MDA-MB-435 = test system: MDA-MB-435
MOLT-4 leukemia = test system: MOLT-4 leukemia
K-562 leukemia = test system: K-562 leukemia
ACHN renal = test system: ACHN renal
SNB-75 CNS = test system: SNB-75 CNS
SN12K1 renal = test system: SN12K1 renal
M14 melanoma = test system: M14 melanoma
LXFL 529 NSCLC = test system: LXFL 529 NSCLC
CCRF-CEM leukemia = test system: CCRF-CEM leukemia
UACC-257 melanoma = test system: UACC-257 melanoma
SK-OV-3 ovarian = test system: SK-OV-3 ovarian
DMS 273 small cell lung = test system: DMS 273 small cell lung
BT-549 breast = test system: BT-549 breast
MALME-3M melanoma = test system: MALME-3M melanoma
MDA-N = test system: MDA-N
HL-60(TB) leukemia = test system: HL-60(TB) leukemia
SF-295 CNS = test system: SF-295 CNS
XF 498 CNS = test system: XF 498 CNS
OVCAR-4 ovarian = test system: OVCAR-4 ovarian
KM20L2 colon = test system: KM20L2 colon
RPMI-8226 leukemia = test system: RPMI-8226 leukemia
RXF 393 renal = test system: RXF 393 renal
DMS 114 small cell lung = test system: DMS 114 small cell lung
NCI/ADR-RES ovarian = test system: NCI/ADR-RES ovarian
SNB-78 CNS = test system: SNB-78 CNS
SK-MEL-5 melanoma = test system: SK-MEL-5 melanoma
MCF7 breast = test system: MCF7 breast
SF-268 CNS = test system: SF-268 CNS
MDA-MB-231 breast = test system: MDA-MB-231 breast
A498 renal = test system: A498 renal
P388 leukemia = test system: P388 leukemia
PC-3 prostate = test system: PC-3 prostate
HS 578T breast = test system: HS 578T breast
SF-539 CNS = test system: SF-539 CNS
IGROV1 ovarian = test system: IGROV1 ovarian
786-0 renal = test system: 786-0 renal
HOP-62 NSCLC = test system: HOP-62 NSCLC
HOP-92 NSCLC = test system: HOP-92 NSCLC
SN12C renal = test system: SN12C renal
DLD-1 colon = test system: DLD-1 colon
SNB-19 CNS = test system: SNB-19 CNS
NCI-H23 lung = test system: NCI-H23 lung
T-47D breast = test system: T-47D breast
SW-620 colon = test system: SW-620 colon
HCT-15 colon = test system: HCT-15 colon
A549 NSCLC = test system: A549 NSCLC
OVCAR-3 ovarian = test system: OVCAR-3 ovarian
HCC-2998 colon = test system: HCC-2998 colon
M19-MEL melanoma = test system: M19-MEL melanoma
U251 CNS = test system: U251 CNS
LOX IMVI melanoma = test system: LOX IMVI melanoma
SK-MEL-2 melanoma = test system: SK-MEL-2 melanoma
OVCAR-8 ovarian = test system: OVCAR-8 ovarian
UACC-62 melanoma = test system: UACC-62 melanoma

CCOC(=O)C(CC(C)C)NC(=O)C(Cc1ccc(N(CCCl)CCCl)cc1)NC(C)=O (stereo unspecified)
TGI (MDA-MB-435): 11.5 µM
GI50 (MOLT-4 leukemia): 2.04 µM and 0.307 µM
TGI (MOLT-4 leukemia): 15.5 µM and 3.31 µM
GI50 (K-562 leukemia): 11.6 µM
TGI (K-562 leukemia): 49.7 µM and 54.6 µM
GI50 (ACHN renal): 3.7 µM
TGI (ACHN renal): 16 µM and 9.63 µM
GI50 (SNB-75 CNS): 8.51 µM
TGI (SNB-75 CNS): 21.7 µM and 24.9 µM
TGI (SN12K1 renal): 10.4 µM
GI50 (M14 melanoma): 4.13 µM
TGI (M14 melanoma): 15.8 µM and 8.08 µM
TGI (LXFL 529 NSCLC): 26.5 µM
GI50 (CCRF-CEM leukemia): 2.52 µM
TGI (UACC-257 melanoma): 14 µM and 13.1 µM
GI50 (SK-OV-3 ovarian): 21.7 µM
TGI (SK-OV-3 ovarian): 58.6 µM and 35.5 µM
TGI (DMS 273 small cell lung): 20.1 µM and 24.9 µM
TGI (BT-549 breast): 32.3 µM
GI50 (MALME-3M melanoma): 4.01 µM
TGI (MALME-3M melanoma): 22.8 µM and 7.77 µM
TGI (MDA-N): 6.91 µM
GI50 (HL-60(TB) leukemia): 2.07 µM
TGI (HL-60(TB) leukemia): 28.7 µM and 3.32 µM
GI50 (SF-295 CNS): 7.89 µM
TGI (SF-295 CNS): 26.8 µM and 26.3 µM
TGI (XF 498 CNS): 1.14 µM
GI50 (OVCAR-4 ovarian): 16.1 µM
TGI (OVCAR-4 ovarian): 29.5 µM and 27.1 µM
GI50 (KM20L2 colon): 13.8 µM
TGI (KM20L2 colon): 29.7 µM and 46.9 µM
GI50 (RPMI-8226 leukemia): 3.19 µM
TGI (RPMI-8226 leukemia): 14.8 µM and 15 µM
GI50 (RXF 393 renal): 2.57 µM
TGI (RXF 393 renal): 6.75 µM and 4.46 µM
GI50 (DMS 114 small cell lung): 1.37 µM
TGI (DMS 114 small cell lung): 12.2 µM and 7.05 µM
TGI (NCI/ADR-RES ovarian): 68.5 µM
TGI (SNB-78 CNS): 16.6 µM and 17.8 µM
GI50 (SK-MEL-5 melanoma): 10.6 µM
TGI (SK-MEL-5 melanoma): 23.5 µM and 10.7 µM
TGI (MCF7 breast): 25.9 µM
TGI (SF-268 CNS): 22.6 µM and 20.5 µM
TGI (MDA-MB-231 breast): 23.2 µM
GI50 (A498 renal): 18.4 µM
TGI (A498 renal): 37 µM and 48.4 µM
TGI (P388 leukemia): 10.6 µM
TGI (PC-3 prostate): 57.8 µM
TGI (HS 578T breast): 20.2 µM
TGI (SF-539 CNS): 10.6 µM and 9.63 µM
TGI (IGROV1 ovarian): 33.2 µM and 29.3 µM
GI50 (786-0 renal): 4.11 µM
TGI (786-0 renal): 16.6 µM and 8.47 µM
GI50 (HOP-62 NSCLC): 6.09 µM
TGI (HOP-62 NSCLC): 23.1 µM and 14.2 µM
GI50 (HOP-92 NSCLC): 1.25 µM
TGI (HOP-92 NSCLC): 3.75 µM and 1.4 µM
GI50 (SN12C renal): 4.59 µM
TGI (SN12C renal): 17.2 µM and 14.6 µM
GI50 (DLD-1 colon): 5.4 µM and 8.64 µM
TGI (DLD-1 colon): 21.1 µM and 31.3 µM
GI50 (SNB-19 CNS): 19.7 µM
TGI (SNB-19 CNS): 81.8 µM and 42.7 µM
GI50 (NCI-H23 lung): 5.17 µM
TGI (NCI-H23 lung): 16.7 µM and 16.5 µM
TGI (T-47D breast): 11.2 µM
GI50 (SW-620 colon): 11.3 µM
TGI (SW-620 colon): 28.7 µM and 33.4 µM
TGI (HCT-15 colon): 43.1 µM
TGI (A549 NSCLC): > 100 µM and 77.5 µM
GI50 (OVCAR-3 ovarian): 15.1 µM
TGI (OVCAR-3 ovarian): 29.2 µM and 13.7 µM
GI50 (HCC-2998 colon): 17.2 µM
TGI (HCC-2998 colon): 31.5 µM and 30.6 µM
GI50 (M19-MEL melanoma): 6.3 µM
TGI (M19-MEL melanoma): 19.3 µM and 15.9 µM
GI50 (U251 CNS): 10.2 µM
TGI (U251 CNS): 26.2 µM and 27 µM
GI50 (LOX IMVI melanoma): 3.34 µM
TGI (LOX IMVI melanoma): 15.1 µM and 12.5 µM
GI50 (SK-MEL-2 melanoma): 1.81 µM
TGI (SK-MEL-2 melanoma): 4.74 µM and 5.49 µM
GI50 (OVCAR-8 ovarian): 12.1 µM
TGI (OVCAR-8 ovarian): 30.8 µM and 55.2 µM
GI50 (UACC-62 melanoma): 2.86 µM
TGI (UACC-62 melanoma): 12.7 µM and 7.29 µM
